“And” between values parts separate entries of the source, which are not always exact repeats. Identical values can stand only once.
Legend:
[1] = test system: porcine epidemic diarrhea virus (PEDV); experiment: Inhibition of PEDV replication in infected Vero E6 cells (vRNA in supernatant by qRT-PCR); assay type: cell-based; settings: 10 μM and 2 μM, MOI 0.05, 24 h, FIG. 1
Method: This Example evaluated whether bromophenol-pyrazoline compounds can inhibit replication of porcine coronavirus in Vero E6 cells infected with clinically isolated strains of porcine epidemic diarrhea virus (PEDV).
(§1) Specific operation: pre-seeded Vero E6 cells (5×10^4 cells/well) were respectively pretreated for 1 h with different concentrations of bromophenol-pyrazoline compounds to be tested (2 μM and 10 μM), and then infected with porcine coronavirus (PEDV; MOI: 0.05) for 2 h. Then, a virus-compound mixture was removed, and the cells were further cultured with a fresh medium containing the bromophenol-pyrazoline compound. After 24 hours, a cell supernatant was collected, and vRNA in the supernatant was analyzed by qRT-PCR. The treatment without a bromophenol-pyrazoline compound was used as a control.

[2] = test system: porcine transmissible gastroenteritis virus (TGEV); experiment: Inhibition of TGEV replication in infected Vero E6 cells (vRNA in supernatant by qRT-PCR); assay type: cell-based; settings: 10 μM and 2 μM, MOI 0.05, 24 h, FIG. 2
Method: This Example evaluated whether bromophenol-pyrazoline compounds can inhibit replication of porcine coronavirus in Vero E6 cells infected with clinically isolated strains of porcine transmissible gastroenteritis virus (TGEV).
as §1, with “(TGEV;” for “(PEDV;”

[3] = test system: porcine epidemic diarrhea virus; experiment: Clinical trial in diseased pigs with epidemic diarrhea (PEDV infection); assay type: in vivo, pig; settings: for Diarrhea Scoring Index: individual pigs, 0 formed manure, 1 thick not formed, 2 manure and water separation, 3 watery manure; for Effective rate / Number of deaths / Mortality rate: diseased pigs within 10 days of age; for Effective rate: 72 h, based on diarrhea scoring index; for Number of deaths: 72 h observation, treatment twice a day; for Mortality rate: piglet deaths at end of 72 h test
Method: Through the PCR detection of diseased pig tissues at Zhucheng Pig Farm in November 2020, the type of viral infection was determined.
Diseased pigs with epidemic diarrhea within 10 days of age were selected and randomly divided into 4 groups, i.e. untreated group, traditional Chinese medicine treatment group, compound 4 treatment group and lgY antibody treatment group, respectively. The traditional Chinese medicine treatment group was drenched with a compound decoction consisting of dandelion, Chinese violet, coptis, isatis root, etc., twice a day for 3 consecutive days. Compound 4 was taken at a dose of 25 mg/pig after being dissolved in a dextrose solution, twice a day. The lgY antibody treatment group was fed with chicken egg antibodies (lgY), twice a day. The untreated group, the traditional Chinese medicine treatment group and the lgY antibody treatment group were respectively drenched with the same dose of the glucose solution as the compound 4 treatment group. The pigs were breast-fed during treatment.
During the clinical treatment of the diseased pigs with epidemic diarrhea, the diarrhea indexes of the diseased pigs in the untreated group (6 pigs), the compound 4 treatment group (8 pigs) and the lgY antibody treatment group (6 pigs) were scored through sampling.

What does the source list for `CC(C)(C)c1ccc(Oc2ccc(C3=NN(C(N)=S)C(c4ccc(O)c(O)c4)C3)cc2)cc1` (centres unmarked) [Compound 4]?
inhibitory activity against replication of PEDV (viral RNA) [1]: strongest inhibitory activity; inhibitory activity against replication of TGEV (viral RNA) [2]: strongest inhibitory activity; alleviation of diarrhea ([3]; 8 scored diseased pigs, 24 h after oral administration): significantly alleviated diarrhea; curative ratio ([3]; 8 scored diseased pigs, 72 h after oral administration): 100%; Diarrhea Scoring Index ([3]; 12 h after administration): 3 (7×) and 2; Diarrhea Scoring Index ([3]; 24 h after administration): 2 (7×) and 1; Diarrhea Scoring Index ([3]; 48 h after administration): 0 (5×) and 1 (2×) and 2; Diarrhea Scoring Index ([3]; 72 h after administration): 0; Effective rate [3]: 100%; Effective rate ([3]; listed as compound 4): 100%; Number of deaths [3]: 0; Number of deaths ([3]; listed as compound 4): no pig died; Mortality rate [3]: 0%; Mortality rate ([3]; listed as compound 4): 0%

Reference: patent publication US11752133B2, “Use of bromophenol-pyrazoline compounds in the treatment of porcine coronavirus diseases” (priority 2020, dated 2023)
